pKi: −log10 of the molar value.
Tests used:
[1] = target: Sigma non-opioid intracellular receptor 1 (Cavia porcellus, UniProt Q60492); assay: Displacement of [3H]-(+)-pentazocine from sigma1 receptor in guinea pig brain membrane after 150 mins by scintillation counting analysis; type: cell membranes
[2] = Displacement of [3H]DTG from sigma2 receptor in guinea pig brain membrane after 120 mins by scintillation counting analysis; type: cell membranes, Cavia porcellus
Cavia porcellus = species on record: Cavia porcellus; assay: Selectivity ratio of Ki for guinea pig brain sigma2 receptor to Ki for guinea pig brain sigma1 receptor
[3] = target: Sodium-dependent dopamine transporter (Mus musculus) (UniProt Q61327); assay: […] from mouse DAT in striatal membranes at 10000 nM; type: cell membranes; conditions: Striatum, Membrane
Sequence of Sodium-dependent dopamine transporter (Mus musculus) (Q61327 whole entry): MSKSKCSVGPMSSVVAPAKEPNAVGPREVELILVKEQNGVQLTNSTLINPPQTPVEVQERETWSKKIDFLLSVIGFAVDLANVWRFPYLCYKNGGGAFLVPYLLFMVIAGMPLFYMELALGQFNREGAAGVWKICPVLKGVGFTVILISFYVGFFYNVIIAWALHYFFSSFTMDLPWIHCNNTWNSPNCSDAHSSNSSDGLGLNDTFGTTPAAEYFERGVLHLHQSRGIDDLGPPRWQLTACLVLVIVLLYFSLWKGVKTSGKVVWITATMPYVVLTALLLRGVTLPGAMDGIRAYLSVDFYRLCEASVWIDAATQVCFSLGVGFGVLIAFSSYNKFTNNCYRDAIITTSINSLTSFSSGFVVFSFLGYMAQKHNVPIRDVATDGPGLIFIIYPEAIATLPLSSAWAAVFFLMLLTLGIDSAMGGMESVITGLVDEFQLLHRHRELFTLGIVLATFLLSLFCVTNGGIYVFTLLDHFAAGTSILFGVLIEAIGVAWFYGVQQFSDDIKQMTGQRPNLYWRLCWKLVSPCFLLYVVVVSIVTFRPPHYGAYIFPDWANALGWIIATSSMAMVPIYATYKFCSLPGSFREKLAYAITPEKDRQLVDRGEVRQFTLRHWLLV

[4] = target: Sodium-dependent serotonin transporter (Mus musculus, UniProt Q60857); assay: Displacement of [3H]paroxetine from mouse SERT in whole brain membrane; type: cell membranes
Sequence of Sodium-dependent serotonin transporter (Q60857 whole entry): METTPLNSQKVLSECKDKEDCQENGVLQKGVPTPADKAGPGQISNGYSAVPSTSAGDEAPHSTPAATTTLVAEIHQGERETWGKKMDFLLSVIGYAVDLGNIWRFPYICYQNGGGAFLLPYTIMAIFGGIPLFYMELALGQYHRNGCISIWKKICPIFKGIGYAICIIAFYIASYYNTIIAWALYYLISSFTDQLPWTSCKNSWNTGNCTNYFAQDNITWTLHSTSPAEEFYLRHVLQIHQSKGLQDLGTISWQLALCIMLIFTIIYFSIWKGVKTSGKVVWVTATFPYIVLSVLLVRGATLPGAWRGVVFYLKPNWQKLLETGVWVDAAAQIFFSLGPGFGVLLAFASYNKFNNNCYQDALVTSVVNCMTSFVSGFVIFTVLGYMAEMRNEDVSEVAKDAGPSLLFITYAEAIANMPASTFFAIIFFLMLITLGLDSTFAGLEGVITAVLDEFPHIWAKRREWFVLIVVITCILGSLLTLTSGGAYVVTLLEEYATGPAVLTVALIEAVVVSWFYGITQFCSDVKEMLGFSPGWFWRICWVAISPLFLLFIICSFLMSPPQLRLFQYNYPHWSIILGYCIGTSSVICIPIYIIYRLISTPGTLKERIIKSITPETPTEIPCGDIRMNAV

[5] = Selectivity ratio of Ki for mouse DAT to Ki for guinea pig brain sigma1 receptor
[6] = Selectivity ratio of Ki for mouse SERT to Ki for guinea pig brain sigma1 receptor
[7] = target: Sodium-dependent dopamine transporter (Mus musculus, UniProt Q61327); assay: Displacement of [3H]RTI-121 from mouse DAT in striatal membranes; type: cell membranes, Striatum, Membrane
Sequence of Sodium-dependent dopamine transporter (Q61327 whole entry): as the sequence (Q61327 whole entry) above

Sequence of Sigma non-opioid intracellular receptor 1 (Q60492 whole entry): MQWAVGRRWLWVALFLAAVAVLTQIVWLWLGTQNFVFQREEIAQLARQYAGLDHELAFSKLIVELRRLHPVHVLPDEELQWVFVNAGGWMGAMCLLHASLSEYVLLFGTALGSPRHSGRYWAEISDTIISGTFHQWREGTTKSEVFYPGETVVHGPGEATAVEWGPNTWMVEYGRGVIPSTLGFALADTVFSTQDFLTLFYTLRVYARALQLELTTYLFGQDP

Row | Compound | pKi [1] | pKi [2] | Ratio Ki (Cavia porcellus) | Inhibition % [3] [%] | pKi [4] | Ratio Ki [5] | Ratio Ki [6] | pKi [7]
1 | C=CCOc1ccc(CCN2CCN(CCCc3ccccc3)CC2)cc1OC | 7.52 | 7.38 | 1.4 | 44 | 6.53 | 69 | 9.8 | 5.68
2 | COc1ccccc1CCN1CCN(CCCc2ccccc2)CC1 |  | 8.12 |  |  |  |  |  | 
3 | c1ccc(CCCN2CCN(CCc3ccc4c(c3)OCCO4)CC2)cc1 | 7.99 | 7.45 | 3.4 | 33 |  |  |  | 
4 | COc1ccc(CCN2CCN(CCCc3ccccc3)CC2)cc1 | 8.89 | 7.54 | 22 |  | 5.76 | 1130 | 1330 | 5.83
5 | c1ccc(CCCN2CCN(CCc3ccc4c(c3)OCO4)CC2)cc1 | 8.59 | 7.83 | 5.8 | 42 | 6.33 | 721 | 184 | 5.74
6 | COc1ccc(CCN2CCN(CCCc3ccccc3)CC2)cc1OC [[11C]SA4503] |  | 7.20 |  |  | 6.12 |  |  | 
7 | COc1cc(CCN2CCN(CCCc3ccccc3)CC2)ccc1OCc1ccccc1 | 7.68 | 7.78 | 0.8 | 93 | 6.89 | 6 | 6.2 | 6.92
8 | COc1cccc(CCN2CCN(CCCc3ccccc3)CC2)c1 | 8.85 | 7.99 | 7.3 |  | 6.01 | 1010 | 703 | 5.85
9 | COc1cc(CCN2CCN(CCCc3ccccc3)CC2)ccc1O | 8.76 | 8.17 | 3.8 |  |  |  |  | 
10 | COc1cc(CCN2CCN(CCCc3ccccc3)CC2)ccc1OCCCc1ccccc1 | 7.73 | 7.63 | 1.3 | 97 |  | 5 |  | 7.06
11 | COc1cc(CCN2CCN(CCCc3ccccc3)CC2)ccc1OCCc1ccccc1 | 7.88 | 7.78 | 1.2 | 89 |  |  |  | 
12 | c1ccc(CCCN2CCN(CCc3ccc4c(c3)OCCCO4)CC2)cc1 | 7.72 | 7.28 | 2.7 | 43 |  |  |  | 
13 | Clc1ccc(CCN2CCN(CCCc3ccccc3)CC2)cc1Cl | 8.66 | 7.41 |  |  | 5.54 |  |  | 

Results, then the molecule that gave them:

Row | pKi [1] | pKi [2] | Ratio Ki (Cavia porcellus) | Inhibition % [3] [%] | pKi [4] | Ratio Ki [5] | Ratio Ki [6] | pKi [7] | Compound
14 | 7.59 | 7.48 | 1.3 | 43 | 6.91 | 71 | 4.8 | 5.74 | CCCOc1ccc(CCN2CCN(CCCc3ccccc3)CC2)cc1OC
15 | 8.10 | 6.95 | 14.1 | 23 |  |  |  |  | COc1cc(CCN2CCN(CCCc3ccccc3)CC2)ccc1OCCF
16 | 7.97 | 7.78 | 1.6 | 94 |  | 22 |  | 6.63 | COc1cc(CCN2CCN(CCCc3ccccc3)CC2)ccc1OC/C=C\I
17 | 7.77 | 7.74 | 1.1 | 69 | 6.76 | 33 | 10.3 | 6.25 | COc1cc(CCN2CCN(CCCc3ccccc3)CC2)ccc1OC/C=C/I
18 | 8.19 | 6.60 | 39 | 19 |  |  |  |  | COc1cc(CCN2CCN(CCCc3ccccc3)CC2)ccc1OCF
19 | 7.60 | 7.57 | 1.1 | 38 |  |  |  |  | COc1cc(CCN2CCN(CCCc3ccccc3)CC2)ccc1OCCBr

Source: ChEMBL document CHEMBL3352167 (Bioorg Med Chem, 2015)
